Experiments:
[1] = biological target: T1, Human Recombinant Glucocorticoid Receptor (Homo sapiens, UniProt P04150); test: Glucocorticoid receptor binding displacement assay with 3H-dexamethasone; details: displacement of 2.5 nM 3H-dexamethasone; Ki from IC50 by Cheng-Prusoff; read-out: GR Binding Ki
T1 construct: This GR was a full-length steroid hormone receptor likely to be associated with heat-shock and other endogenous proteins; host or cells: baculovirus-infected insect cells
T1 sequence (P04150 1-777): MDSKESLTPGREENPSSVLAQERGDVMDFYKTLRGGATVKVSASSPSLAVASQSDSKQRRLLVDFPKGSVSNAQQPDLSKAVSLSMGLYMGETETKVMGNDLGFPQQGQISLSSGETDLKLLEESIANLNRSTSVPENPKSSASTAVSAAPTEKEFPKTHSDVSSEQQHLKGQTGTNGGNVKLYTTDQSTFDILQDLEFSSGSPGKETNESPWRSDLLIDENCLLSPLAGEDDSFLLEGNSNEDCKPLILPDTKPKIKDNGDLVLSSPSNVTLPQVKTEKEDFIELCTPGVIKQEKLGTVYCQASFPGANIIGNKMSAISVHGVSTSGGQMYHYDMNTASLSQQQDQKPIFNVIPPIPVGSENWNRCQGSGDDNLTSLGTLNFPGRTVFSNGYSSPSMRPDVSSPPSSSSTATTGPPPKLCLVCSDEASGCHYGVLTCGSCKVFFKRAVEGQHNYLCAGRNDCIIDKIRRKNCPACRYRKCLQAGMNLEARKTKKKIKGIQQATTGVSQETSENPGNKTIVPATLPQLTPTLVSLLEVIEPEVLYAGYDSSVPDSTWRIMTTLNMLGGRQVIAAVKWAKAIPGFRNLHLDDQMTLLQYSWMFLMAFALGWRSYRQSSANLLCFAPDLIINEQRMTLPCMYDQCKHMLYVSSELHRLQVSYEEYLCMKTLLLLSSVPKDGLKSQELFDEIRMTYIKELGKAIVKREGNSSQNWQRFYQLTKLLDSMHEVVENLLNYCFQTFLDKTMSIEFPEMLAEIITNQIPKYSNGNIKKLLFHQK
Protocol: The source of the receptor was recombinant baculovirus-infected insect cells. This GR was a full-length steroid hormone receptor likely to be associated with heat-shock and other endogenous proteins.
For the Primary Screen, test compounds were tested at 1 μM in duplicate. These compounds were diluted from 10 mM stock in 100% DMSO. After dilution to 100 μM, 5 μl were added to 245 μl assay buffer to obtained 2 μM compound and 2% DMSO.
For the IC50 determinations, test compounds were tested at 6 concentrations in duplicate (concentration range depends on % inhibition binding that was obtained in the Primary Screen). Test compounds were diluted from 10 mM stock in 100% DMSO. The tested solutions were prepared at 2× final assay concentration in 2% DMSO/assay buffer.
All reagents and the assay plate were kept on ice during the addition of reagents. […] After the additions, the incubation mixture was mixed and incubated for 2.5 hrs at 4° C.
After 2.5 hrs incubation, unbound counts were removed with dextran coated charcoal (DCC) as follows: 25 μl of DCC solution (10% DCC in assay buffer) was added to all wells and mixed (total volume 225 μl). The plate was centrifuged at 4000 rpm for 10 minutes at 4° C. 75 μl of the supernatants (i.e.⅓ of total volume) was carefully pipetted into an optiplate. 200 μl of scintillation cocktail were added (Microscint-40, Packard Bioscience. B.V.). The plate was vigorously shaken for approx. 10 minutes and counted on Topcount.
The IC50 values were converted to Ki (the inhibition constant) using the Cheng-Prusoff equation. Test results are presented in Tablel.
Reagents: Assay buffer: 10 mM potassium phosphate buffer pH 7.6 containing 5 mM DTT, 10 mM sodium molybdate, 100 μM EDTA and 0.1% BSA.

[2] = biological target: T2, glucocorticoid receptors (GR) in SW1353/MMTV-5 cells (Homo sapiens, UniProt P04150); test: GR functional assay using SW1353/MMTV-5 cells (MMTV-luciferase reporter); format: cell-based
T2 construct: contains endogenous glucocorticoid receptors; endogenous in cells; host or cells: SW1353/MMTV-5 (human chondrosarcoma, stably transfected with the pMAMneo-Luc reporter only)
T2 sequence (P04150 1-777): T1 sequence (P04150 1-777)
Protocol: SW1353/MMTV-5 is an adherent human chondrosarcoma cell line that contains endogenous glucocorticoid receptors. It was transfected with a plasmid (pMAMneo-Luc) encoding firefly luciferase located behind a glucocorticoid-responsive element (GRE) derived from a viral promoter (long terminal repeat of mouse mammary tumor virus). A stable cell line SW1353/MMTV-5 was selected with geneticin, which was required to maintain this plasmid.
SW1353/MMTV-5 cells were distributed in 96-well plates and incubated in medium (without geneticin) for 24 hrs (in the absence of CO2).

SMILES	Ki [1] [nM]	Ki [2] [nM]
COC[C@]12Cc3cnn(-c4ccc(F)cc4)c3C=C1CCN(S(=O)(=O)c1ccc(N3CC[C@@H](F)C3)nc1)C2 [Example 20, (R)-1-(4-Fluorophenyl)-6-[6-((R)-3-fluoropyrrolidin-1-yl)-pyridine-3-sulfonyl]-4a-methoxymethyl-4,4a,5,6,7,8-hexahydro-1H-1,2,6-triaza-cyclopenta[b]naphthalene]	> 1	10 to 50
COC[C@]12Cc3cnn(-c4ccc(F)cc4)c3C=C1CCN(S(=O)(=O)c1ccc(N3CC[C@@H](O)C3)nc1)C2 [Example 21, (R)-1-{5-[(R)-1-(4-Fluorophenyl)-4a-methoxymethyl-1,4,4a,5,6,7,8-hexahydro-1,2,6-triaza-cyclopenta[b]naphthalene-6-sulfonyl]-pyridin-2-yl}-pyrrolidin-3-ol]	> 1	> 50
COC[C@]12Cc3cnn(-c4ccc(F)cc4)c3C=C1CCN(S(=O)(=O)c1ccc(N3CC[C@H](O)C3)nc1)C2 [Example 22, (S)-1-{5-[(R)-1-(4-Fluorophenyl)-4a-methoxymethyl-1,4,4a,5,6,7,8-hexahydro-1,2,6-triaza-cyclopenta[b]naphthalene-6-sulfonyl]-pyridin-2-yl}-pyrrolidin-3-ol]	> 1	> 50
COC[C@]12Cc3cnn(-c4ccc(F)cc4)c3C=C1CCN(S(=O)(=O)c1ccc(N3C[C@@H]4C[C@H]3CO4)nc1)C2 [Example 23, (R)-1-(4-Fluorophenyl)-4a-methoxymethyl-6-[(1S,4S)-6-(2-oxa-5-aza-bicyclo[2.2.1]hept-5-yl)pyridine-3-sulfonyl]-4,4a,5,6,7,8-hexahydro-1H-1,2,6-triaza-cyclopenta[b]naphthalene]	> 1	> 50
COC[C@]12Cc3cnn(-c4ccc(F)cc4)c3C=C1CCN(S(=O)(=O)c1ccc(C(F)(F)F)nc1)C2 [Example 24, (R)-1-(4-Fluorophenyl)-4a-methoxymethyl-6-(6-trifluoromethylpyridine-3-sulfonyl)-4,4a,5,6,7,8-hexahydro-1H-1,2,6-triaza-cyclopenta[b]naphthalene]	> 1	10 to 50
O=S(=O)(c1ccc(N2CCCC2)nc1)N1CCC2=Cc3c(cnn3-c3ccc(F)cc3)C[C@]2(COCC2CC2)C1 [Example 25, (R)-4a-Cyclopropylmethoxymethyl-1-(4-fluorophenyl)-6-(6-pyrrolidin-1-yl-pyridine-3-sulfonyl)-4,4a,5,6,7,8-hexahydro-1H-1,2,6-triaza-cyclopenta[b]naphthalene]	0.5 to 1	< 10
O=S(=O)(c1ccc(N2CC[C@@H](F)C2)nc1)N1CCC2=Cc3c(cnn3-c3ccc(F)cc3)C[C@]2(COCC2CC2)C1 [Example 26, (R)-4a-Cyclopropylmethoxymethyl-1-(4-fluorophenyl)-6-(6-((R)-3-fluoro-pyrrolidin-1-yl)-pyridine-3-sulfonyl)-4,4a,5,6,7,8-hexahydro-1H-1,2,6-triaza-cyclopenta[b]naphthalene]	0.5 to 1	< 10
O=S(=O)(c1ccc(N2CC[C@H](F)C2)nc1)N1CCC2=Cc3c(cnn3-c3ccc(F)cc3)C[C@]2(COCC2CC2)C1 [Example 27, (R)-4a-Cyclopropylmethoxymethyl-1-(4-fluorophenyl)-6-(6-((S)-3-fluoropyrrolidin-1-yl)-pyridine-3-sulfonyl)-4,4a,5,6,7,8-hexahydro-1H-1,2,6-triaza-cyclopenta[b]naphthalene]	0.5 to 1	< 10
O=S(=O)(c1ccc(N2CC[C@@H](O)C2)nc1)N1CCC2=Cc3c(cnn3-c3ccc(F)cc3)C[C@]2(COCC2CC2)C1 [Example 28, (R)-1-{5-[(R)-4a-Cyclopropylmethoxymethyl-1-(4-fluorophenyl)-1,4,4a,5,6,7,8-hexahydro-1,2,6-triaza-cyclopenta[b]naphthalene-6-sulfonyl]pyridine-2-yl}-pyrrolidine-3-ol]	< 0.5	10 to 50
O=S(=O)(c1ccc(N2CC[C@H](O)C2)nc1)N1CCC2=Cc3c(cnn3-c3ccc(F)cc3)C[C@]2(COCC2CC2)C1 [Example 29, (S)-1-{5-[(R)-4a-Cyclopropylmethoxymethyl-1-(4-fluorophenyl)-1,4,4a,5,6,7,8-hexahydro-1,2,6-triaza-cyclopenta[b]naphthalene-6-sulfonyl]pyridine-2-yl}-pyrrolidine-3-ol]	0.5 to 1	10 to 50
O=S(=O)(c1ccc(N2CC(F)C2)nc1)N1CCC2=Cc3c(cnn3-c3ccc(F)cc3)C[C@]2(COCC2CC2)C1 [Example 30, (R)-4a-Cyclopropylmethoxymethyl-6-[6-(3-fluoroazetin-1-yl)-pyridine-3-sulfonyl]-1-(4-fluorophenyl)-1,4,4a,5,6,7,8-hexahydro-1H-1,2,6-triaza-cyclopenta[b]naphthalene]	< 0.5	< 10
O=S(=O)(c1ccc(N2CC(O)C2)nc1)N1CCC2=Cc3c(cnn3-c3ccc(F)cc3)C[C@]2(COCC2CC2)C1 [Example 31, 1-{5-[(R)-4a-Cyclopropylmethoxymethyl-1-(4-fluorophenyl)-1,4,4a,5,6,7,8-hexahydro-1,2,6-triaza-cyclopenta[b]naphthalene-6-sulfonyl]-pyridin-2-yl}-azetidin-3-ol]	0.5 to 1	10 to 50
O=S(=O)(c1ccc(N2CCOCC2)nc1)N1CCC2=Cc3c(cnn3-c3ccc(F)cc3)C[C@]2(COCC2CC2)C1 [Example 32, (R)-4a-Cyclopropylmethoxymethyl-1-(4-fluorophenyl)-6-(6-morpholin-4-yl-pyridine-3-sulfonyl)-4,4a,5,6,7,8-hexahydro-1H-1,2,6-triaza-cyclopenta[b]naphthalene]	0.5 to 1	< 10
COCCOC[C@]12Cc3cnn(-c4ccc(F)cc4)c3C=C1CCN(S(=O)(=O)c1ccc(N3CC[C@@H](F)C3)nc1)C2 [Example 33, (R)-1-(4-Fluorophenyl)-6-[6-((R)-3-fluoropyrrolidin-1-yl)-pyridine-3-sulfonyl]-4a-(2-methoxyethoxymethyl)-4,4a,5,6,7,8-hexahydro-1H-1,2,6-triaza-cyclopenta[b]naphthalene]	0.5 to 1	< 10
O=S(=O)(c1ccc(N2CC[C@@H](F)C2)nc1)N1CCC2=Cc3c(cnn3-c3ccc(F)cc3)C[C@]2(COCCO)C1 [Example 34, 2-{(R)-1-(4-Fluorophenyl)-6-[6-((R)-3-fluoropyrrolidin-1-yl)-pyridine-3-sulphonyl]-1,4,5,6,7,8-hexahydro-1,2,6-triaza-cyclopenta[b]naphthalene-4a-ylmethoxy}-ethanol]	> 1	> 50
Cc1cc(COC[C@]23Cc4cnn(-c5ccc(F)cc5)c4C=C2CCN(S(=O)(=O)c2ccc(N4CC[C@@H](F)C4)nc2)C3)no1 [Example 35, (R)-1-(4-Fluorophenyl)-6-[6-((R)-3-fluoropyrrolidin-1-yl)-pyridine-3-sulfonyl]-4a-(5-methyl-isoxazol-3-ylmethoxymethyl)-4,4a,5,6,7,8-hexahydro-1H-1,2,6-triaza-cyclopenta[b]naphthalene]	> 1	10 to 50

— patent US8598154B2 (Corcept Therapeutics, Inc., priority 2010, dated 2013)
